Results from US9597361B2, “Treating a bacterial skin infection with a whole, leech saliva extract” (priority 2012, dated 2017).

What was measured:
[1] = system: Escherichia coli ATCC35218; assay: Kirby-Bauer disc diffusion; conditions: ATCC35218, read-out: Zone of inhibition, E. coli
[2] = system: Bacillus cereus ATCC25923; assay: Kirby-Bauer disc diffusion; conditions: ATCC25923, read-out: Zone of inhibition, B. cereus
[3] = system: Staphylococcus aureus ATCC25923; assay: Kirby-Bauer disc diffusion; conditions: ATCC25923, read-out: Zone of inhibition, S. aureus
[4] = system: Pseudomonas aeruginosa ATCC27853; assay: Kirby-Bauer disc diffusion; conditions: ATCC27853, read-out: Zone of inhibition, P. auroginosa
Salmonella typhi = assay: Kirby-Bauer disc diffusion; type: cell-based; conditions: Salmonella enterica, read-out: Zone of inhibition, Sal. typhi
[5] = system: alloxan-induced diabetic rats; assay: Antihyperglycemic activity: fasting blood glucose in alloxan-induced diabetic rats
Protocol: Male rats of Sprague Dawley strain (SD) (from Mikro Makmur Enterprise, Kuantan, Pahang Darul Makmur, Malaysia) were grouped randomly and kept at an animal post-graduate laboratory in Kulliyyah of Pharmacy, International Islamic University Malaysia (IIUM), maintained with an air conditioning system and exhaust fans. The rats were under a 12 h/12 h dark and light cycle at room temperature (25° C.). They were acclimatized to these conditions for one week prior to the experiment and housed in polypropylene cages lined with pine wood husk changed every two days. The rats were given free access to tap water and a commercial dry pellet diet, Gold Coin. The experimental procedures were conducted according to Principles and Guide to Ethical Use of Laboratory Animals approved by Ministry of Health Malaysia (Sinniah & Hussein, 2000). […]
After 24 hours of alloxanisation, the fasting blood glucose concentration (FBG) was measured every morning to check the diabetic state of the injected rats. […]
Fasting blood glucose (FBG) at two-hour intervals was recorded during the experiment period for all the experimental animals. The percentage decrease in fasting blood glucose concentration was calculated from the following equation (Madubunyi, Onoja, & Asuzu, 2010):

Row | Molecule | zone of inhibition at 5 µg/disc [1] | zone of inhibition at 5 µg/disc [2] | zone of inhibition at 5 µg/disc [3] | zone of inhibition at 5 µg/disc [4] | zone of inhibition at 5 µg/disc (Salmonella typhi) | fasting blood glucose (FBG) ([5]; after two hours of injection (LSE p<0.05; insulin p<0.001)) | fasting blood glucose (FBG) ([5]; insulin 10 units/kg b.w s.c., after 8 hours of treatment)
1 | O=C(O)c1cn(C2CC2)c2cc(N3CCNCC3)c(F)cc2c1=O [Cipro, ciprofloxacin] | 26 mm | 28 mm | 24 mm | 24 mm | 35 mm | – | –
2 | insulin: insulin from bovine pancreas (≧27 units/mg), suspension in distilled water | – | – | – | – | – | sharp significant decrease | returned to the diabetic state
